PubChem BioAssay AID1259407 (Chemical Carcinogenesis Research Information System (CCRIS), 2018)
Calls of active or inactive are those of the source. How the calls were made is not given here.

Test system: CCRIS mutagenicity, Ames/micronucleus/aberration tests
Experiment: CCRIS mutagenicity studies
[1] = Test System: AMES SALMONELLA TYPHIMURIUM, Strain/Indicator: TA100, Metabolic Activation: NONE, Method: PREINCUBATION
[2] = Test System: AMES SALMONELLA TYPHIMURIUM, Strain/Indicator: TA1535, Metabolic Activation: NONE, Method: PREINCUBATION
[3] = Test System: Ames Salmonella typhimurium, Strain/Indicator: TA98, Metabolic Activation: None, Method: Preincubation
[4] = Test System: Ames Salmonella typhimurium, Strain/Indicator: TA100, Metabolic Activation: None, Method: Preincubation
[5] = Test System: Ames Salmonella typhimurium, Strain/Indicator: TA102, Metabolic Activation: None, Method: Preincubation
[6] = Test System: AMES SALMONELLA TYPHIMURIUM, Strain/Indicator: TA98, Metabolic Activation: NONE, Method: STANDARD PLATE
[7] = Test System: AMES SALMONELLA TYPHIMURIUM, Strain/Indicator: TA100, Metabolic Activation: NONE, Method: STANDARD PLATE
[8] = Test System: AMES SALMONELLA TYPHIMURIUM, Strain/Indicator: TA100, Metabolic Activation: RAT, LIVER, S-9, AROCLOR 1254, Method: STANDARD PLATE

Measured: mutagenic call

CCOc1ccc(N(O)C(C)=O)cc1
inactive: [1] inactive; negative
active: End Point: IN VITRO MICRONUCLEUS, Test System: RAT KIDNEY FIBROBLAST NRK-49F, Metabolic Activation: NONE active; positive | Test System: AMES SALMONELLA TYPHIMURIUM, Strain/Indicator: TA100, Metabolic Activation: HAMSTER, LIVER, S-9, AROCLOR 1254, Method: LIQUID SUSPENSION active; positive | Test System: AMES SALMONELLA TYPHIMURIUM, Strain/Indicator: TA100, Metabolic Activation: HAMSTER, LIVER, S-9, KANECHLOR 400 (WITHOUT NADPH GENERATING SYSTEM), Method: PREINCUBATION active; positive | Test System: AMES SALMONELLA TYPHIMURIUM, Strain/Indicator: TA100, Metabolic Activation: RAT, LIVER, S-9, PCB, Method: LIQUID SUSPENSION active; positive

O=C1N(CO)C(O)C(O)N1CO (centres undefined)
inactive: Test System: AMES SALMONELLA TYPHIMURIUM, Strain/Indicator: TA98, Metabolic Activation: HAMSTER, LIVER, AROCLOR 1254 (10%), Method: PREINCUBATION inactive; negative | Test System: AMES SALMONELLA TYPHIMURIUM, Strain/Indicator: TA98, Metabolic Activation: HAMSTER, LIVER, S-9, AROCLOR 1254 (10%), Method: PREINCUBATION inactive; negative | Test System: AMES SALMONELLA TYPHIMURIUM, Strain/Indicator: TA98, Metabolic Activation: RAT, LIVER, S-9, AROCLOR 1254 (10%), Method: PREINCUBATION inactive; negative | [1] inactive; negative | Test System: AMES SALMONELLA TYPHIMURIUM, Strain/Indicator: TA1535, Metabolic Activation: HAMSTER, LIVER, S-9, AROCLOR 1254 (10%), Method: PREINCUBATION inactive; negative | [2] inactive; negative | Test System: AMES SALMONELLA TYPHIMURIUM, Strain/Indicator: TA1535, Metabolic Activation: RAT, LIVER, S-9, AROCLOR 1254 (10%), Method: PREINCUBATION inactive; negative | Test System: AMES SALMONELLA TYPHIMURIUM, Strain/Indicator: TA1537, Metabolic Activation: HAMSTER, LIVER, S-9, AROCLOR 1254 (10%), Method: PREINCUBATION inactive; negative | Test System: AMES SALMONELLA TYPHIMURIUM, Strain/Indicator: TA1537, Metabolic Activation: NONE, Method: PREINCUBATION inactive; negative | Test System: AMES SALMONELLA TYPHIMURIUM, Strain/Indicator: TA1537, Metabolic Activation: RAT, LIVER, S-9, AROCLOR 1254 (10%), Method: PREINCUBATION inactive; negative

CCN=[N+](C)[O-]
inactive: Test System: AMES SALMONELLA TYPHIMURIUM, Strain/Indicator: TA1535, Metabolic Activation: HAMSTER, LIVER, S-9, AROCLOR 1254, Method: PREINCUBATION inactive; negative | [2] inactive; negative | Test System: AMES SALMONELLA TYPHIMURIUM, Strain/Indicator: TA1535, Metabolic Activation: RAT, LIVER, S-9, AROCLOR 1254, Method: PREINCUBATION inactive; negative

Nc1ccc(O)c2c1C(O)=CC(=O)C2=O
inactive: Test System: Ames Salmonella typhimurium, Strain/Indicator: TA97, Metabolic Activation: None, Method: Preincubation inactive; negative | Test System: Ames Salmonella typhimurium, Strain/Indicator: TA97, Metabolic Activation: Rat, Liver, S9, Aroclor 1254, Method: Preincubation inactive; negative | Test System: Ames Salmonella typhimurium, Strain/Indicator: TA98, Metabolic Activation: Rat, Liver, S9, Aroclor 1254, Method: Preincubation inactive; negative | [4] inactive; negative | Test System: Ames Salmonella typhimurium, Strain/Indicator: TA100, Metabolic Activation: Rat, Liver, S9, Aroclor 1254, Method: Preincubation inactive; negative | [5] inactive; negative
active: [3] active; positive | Test System: Ames Salmonella typhimurium, Strain/Indicator: TA102, Metabolic Activation: Rat, Liver, S9, Aroclor 1254, Method: Preincubation active; positive

CCN(CC[N+](C)(C)C)c1ccc(N=Nc2ccc([N+](=O)[O-])cc2Cl)cc1
inactive: [4] inactive; negative | [5] inactive; negative | Test System: Ames Salmonella typhimurium, Strain/Indicator: TA1535, Metabolic Activation: None, Method: Preincubation inactive; negative | Test System: MOUSE LYMPHOMA, Strain/Indicator: L5178Y (TK+/TK-), Metabolic Activation: NONE, Method: SUSPENSION/PLATE inactive; negative. reevaluation of results: negative
active: Test System: AMES SALMONELLA TYPHIMURIUM, Strain/Indicator: TA98, Metabolic Activation: HAMSTER, LIVER, S-9, AROCLOR 1254, Method: STANDARD PLATE active; positive | Test System: AMES SALMONELLA TYPHIMURIUM, Strain/Indicator: TA98, Metabolic Activation: HAMSTER, LIVER, S-9, Method: PREINCUBATION (PRIVAL METHOD) active; positive | [6] active; positive | Test System: AMES SALMONELLA TYPHIMURIUM, Strain/Indicator: TA98, Metabolic Activation: RAT, LIVER, S-9, AROCLOR 1254, Method: STANDARD PLATE active; positive | Test System: AMES SALMONELLA TYPHIMURIUM, Strain/Indicator: TA100, Metabolic Activation: HAMSTER, LIVER, S-9, AROCLOR 1254, Method: STANDARD PLATE active; positive | [7] active; positive | [8] active; positive | Test System: AMES SALMONELLA TYPHIMURIUM, Strain/Indicator: TA1537, Metabolic Activation: NONE, Method: STANDARD PLATE active; positive | Test System: AMES SALMONELLA TYPHIMURIUM, Strain/Indicator: TA1538, Metabolic Activation: HAMSTER, LIVER, S-9, AROCLOR 1254, Method: STANDARD PLATE active; positive | Test System: AMES SALMONELLA TYPHIMURIUM, Strain/Indicator: TA1538, Metabolic Activation: NONE, Method: STANDARD PLATE active; positive | Test System: AMES SALMONELLA TYPHIMURIUM, Strain/Indicator: TA1538, Metabolic Activation: RAT, LIVER, S-9, AROCLOR 1254, Method: STANDARD PLATE active; positive | [3] active; positive | Test System: MOUSE LYMPHOMA, Strain/Indicator: L5178Y (TK+/TK-), Metabolic Activation: RAT, LIVER, S-9, AROCLOR 1254, Method: SUSPENSION/PLATE active; positive. reevaluation of results: positive

COCCN(CCOC)c1cc(NC(C)=O)c(-n2nc3c(Br)cc(N)c(Cl)c3n2)cc1OC
active: Test System: AMES SALMONELLA TYPHIMURIUM, Strain/Indicator: TA98, Metabolic Activation: RAT LIVER S-9, AROCLOR 1254, Method: STANDARD PLATE active; positive | Test System: AMES SALMONELLA TYPHIMURIUM, Strain/Indicator: TA100, Metabolic Activation: RAT LIVER S-9, AROCLOR 1254, Method: STANDARD PLATE active; positive | Test System: AMES SALMONELLA TYPHIMURIUM, Strain/Indicator: TA104, Metabolic Activation: RAT LIVER S-9, AROCLOR 1254, Method: STANDARD PLATE active; positive | Test System: AMES SALMONELLA TYPHIMURIUM, Strain/Indicator: YG1024, Metabolic Activation: RAT LIVER S-9, PHENOBARBITAL, 5,6-BENZOFLAVONE (10%), Method: PREINCUBATION active; positive

O=Nc1ccc(Oc2ccccc2)cc1
active: [6] active; positive | Test System: AMES SALMONELLA TYPHIMURIUM, Strain/Indicator: TA100, Metabolic Activation: GUINEA PIG, LIVER, S-9, KANECLOR 500, Method: STANDARD PLATE active; positive

C1CCCC2OC2CC1 (centres undefined)
inactive: [7] inactive; negative | [8] inactive; negative | Test System: AMES SALMONELLA TYPHIMURIUM, Strain/Indicator: TA1535, Metabolic Activation: NONE, Method: STANDARD PLATE inactive; negative | Test System: AMES SALMONELLA TYPHIMURIUM, Strain/Indicator: TA1535, Metabolic Activation: RAT, LIVER, S-9, AROCLOR 1254, Method: STANDARD PLATE inactive; negative | Test System: UDS RAT HEPATOCYTES, Strain/Indicator: THY INCORP, Metabolic Activation: NONE inactive; negative
